Measurements from ChEMBL document CHEMBL6096723, “Discovery of novel capsaicin analogs as TRPV1 inhibitors for the treatment of idiopathic pulmonary fibrosis” (Eur J Med Chem, 2025).
The source made the active and inactive calls. The calls are words filed in the database; no cut-off is given here.

Key:
Mus musculus [1] = assay: Anti-fibrotic activity against bleomycin-induced pulmonary fibrosis mouse model assessed as decrease in hydroxyproline level in lung tissue at 10 to 20 mg/kg, ip administered every alternative day for 8 to 21 days after modeling […]; assay type: functional, organism-based; settings: dose 10-20 mg/kg, time 8-21 day
NIH3T3 [2] = assay: Anti-fibrotic activity in mouse NIH3T3 cells assessed as inhibition of TGFbeta-induced total collagen production at 10 uM measured after 48 hrs by Sirius Red Collagen Detection Kit relative to control; assay type: functional
Mus musculus [3] = assay: Anti-fibrotic activity against bleomycin-induced pulmonary fibrosis mouse model assessed as increase in forced vital capacity (FVC) at 10 to 20 mg/kg, ip administered every alternative day for 8 to 21 days after modeling; assay type: functional, organism-based; settings: dose 10-20 mg/kg, time 8-21 day
NIH3T3 [4] = assay: Inhibition of TGFbeta1-induced proliferation of mouse NIH3T3 cells assessed as colony formation at 10 uM measured after 7 to 14 days by Crystal violet staining based assay; assay type: functional, cell-based; settings: time 7-14 day
[5] = AUC(0 to t) in Sprague-Dawley rat at 50 mg/kg, po measured upto 4 hrs by UPLC-MS/MS analysis; assay type: ADME, organism-based; settings: in vivo
[6] = Acute toxicity in Kunming mouse assessed as organ lesions in heart at 180 mg/kg, ip measured after 14 days by H and E staining based assay; assay type: organism-based; settings: in vivo, 336 h, time 14 day
[7] = Acute toxicity in Kunming mouse assessed as organ lesions in lung at 180 mg/kg, ip measured after 14 days by H and E staining based assay; assay type: organism-based; settings: in vivo, 336 h, time 14 day
[8] = AUC(0 to t) in Sprague-Dawley rat at 50 mg/kg, iv measured upto 4 hrs by UPLC-MS/MS analysis; assay type: ADME, organism-based; settings: in vivo
[9] = Acute toxicity in Kunming female mouse assessed as Uric acid (UA) level at 180 mg/kg, ip measured after 14 days (reference value: 252.2 micromol/L); assay type: organism-based; settings: in vivo, 336 h, time 14 day
Mus musculus [10] = assay: Anti-pulmonary fibrotic activity against bleomycin-induced pulmonary fibrosis mouse model assessed as inhibition of Smad3 phosphorylation in lung tissue at 10 to 20 mg/kg, ip administered every alternative day for 8 to 21 days after modeling by immunohistochemical staining based assay; assay type: functional, organism-based; settings: dose 10-20 mg/kg, time 8-21 day
[11] = MRT(0 to infinity) in Sprague-Dawley rat at 50 mg/kg, iv measured upto 4 hrs by UPLC-MS/MS analysis; assay type: ADME, organism-based; settings: in vivo
[12] = Acute toxicity in Kunming female mouse assessed as Creatine kinase (CK) level at 180 mg/kg, ip measured after 14 days (reference value: 779.7 U/L); assay type: organism-based; settings: in vivo, 336 h, time 14 day
NIH3T3 [13] = assay: Inhibition of TGFbeta-induced Smad2 phosphorylation in mouse NIH3T3 cells by Western blot analysis; assay type: functional, cell-based; settings: dose 1-10 µM
[14] = Acute toxicity in Kunming mouse assessed as organ lesions in kidney at 180 mg/kg, ip measured after 14 days by H and E staining based assay; assay type: organism-based; settings: in vivo, 336 h, time 14 day
Mus musculus [15] = assay: Anti-pulmonary fibrotic activity against bleomycin-induced pulmonary fibrosis mouse model assessed as inhibition of Smad2 phosphorylation in lung tissue at 10 to 20 mg/kg, ip administered every alternative day for 8 to 21 days after modeling by immunohistochemical staining based assay; assay type: functional, organism-based; settings: dose 10-20 mg/kg, time 8-21 day
[16] = Acute toxicity in Kunming female mouse assessed as Albumin (ALB) level at 180 mg/kg, ip measured after 14 days (reference value: 35.8 g/L); assay type: organism-based; settings: in vivo, 336 h, time 14 day
[17] = Acute toxicity in Kunming female mouse assessed as Direct bilirubin (D-Bil) level at 180 mg/kg, ip measured after 14 days (reference value: 3.37 micromol/L); assay type: organism-based; settings: in vivo, 336 h, time 14 day
[18] = AUC(0 to infinity) in Sprague-Dawley rat at 50 mg/kg, iv measured upto 4 hrs by UPLC-MS/MS analysis; assay type: ADME, organism-based; settings: in vivo
[19] = Tmax in Sprague-Dawley rat at 50 mg/kg, ip measured upto 4 hrs by UPLC-MS/MS analysis; assay type: ADME, organism-based; settings: in vivo
[20] = target: Transient receptor potential cation channel subfamily V member 1 (Mus musculus) (UniProt Q704Y3); assay: Thermal stabilization of TRPV1 in mouse NIH3T3 cells assessed as reduction in TRPV1 degradation at 60 degreeC measured after 30 mins by CETSA; assay type: cell-based; settings: dose 1-50 µM
Sequence of Transient receptor potential cation channel subfamily V member 1 (Mus musculus) (Q704Y3 whole entry): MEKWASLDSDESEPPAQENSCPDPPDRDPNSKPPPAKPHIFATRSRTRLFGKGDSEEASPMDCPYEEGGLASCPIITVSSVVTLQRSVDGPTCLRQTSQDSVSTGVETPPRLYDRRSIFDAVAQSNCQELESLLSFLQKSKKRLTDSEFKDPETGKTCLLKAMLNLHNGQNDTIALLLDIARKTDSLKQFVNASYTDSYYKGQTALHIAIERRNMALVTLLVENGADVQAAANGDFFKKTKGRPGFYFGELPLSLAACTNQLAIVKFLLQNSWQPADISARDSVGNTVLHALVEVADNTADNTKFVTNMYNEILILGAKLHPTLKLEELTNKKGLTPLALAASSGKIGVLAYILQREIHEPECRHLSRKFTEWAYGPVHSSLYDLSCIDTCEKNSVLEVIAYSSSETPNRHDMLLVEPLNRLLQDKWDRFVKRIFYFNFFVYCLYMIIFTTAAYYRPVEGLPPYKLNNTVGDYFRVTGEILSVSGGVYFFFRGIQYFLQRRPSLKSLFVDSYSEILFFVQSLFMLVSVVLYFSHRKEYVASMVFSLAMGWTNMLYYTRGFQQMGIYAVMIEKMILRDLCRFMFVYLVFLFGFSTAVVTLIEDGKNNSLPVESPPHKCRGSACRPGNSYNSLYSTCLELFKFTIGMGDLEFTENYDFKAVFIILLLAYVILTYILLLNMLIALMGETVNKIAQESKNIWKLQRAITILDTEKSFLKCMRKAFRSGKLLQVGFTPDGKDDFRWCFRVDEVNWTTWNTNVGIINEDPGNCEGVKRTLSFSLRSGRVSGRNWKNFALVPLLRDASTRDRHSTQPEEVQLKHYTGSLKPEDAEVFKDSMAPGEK

[21] = Clearance in Sprague-Dawley rat at 50 mg/kg, ip measured upto 4 hrs by UPLC-MS/MS analysis; assay type: ADME, organism-based; settings: in vivo
NIH3T3 [22] = assay: Inhibition of TGFbeta-induced p38 phosphorylation in mouse NIH3T3 cells at 1 to 10 uM by Western blot analysis; assay type: functional, cell-based; settings: dose 1-10 µM
[23] = VRT(0 to t) in Sprague-Dawley rat at 50 mg/kg, ip measured upto 4 hrs by UPLC-MS/MS analysis; assay type: ADME, organism-based; settings: in vivo
[24] = AUMC(0 to t) in Sprague-Dawley rat at 50 mg/kg, po measured upto 4 hrs by UPLC-MS/MS analysis; assay type: ADME, organism-based; settings: in vivo
[25] = MRT(0 to infinity) in Sprague-Dawley rat at 50 mg/kg, ip measured upto 4 hrs by UPLC-MS/MS analysis; assay type: ADME, organism-based; settings: in vivo
[26] = Half life in Sprague-Dawley rat at 50 mg/kg, iv measured upto 4 hrs by UPLC-MS/MS analysis; assay type: ADME, organism-based; settings: in vivo
[27] = target: Transient receptor potential cation channel subfamily V member 1 (Homo sapiens) (UniProt Q8NER1); assay: Inhibition of TRPV1 (unknown origin) overexpressed in si-TRPV1-2 transfected HEK-293T cells assessed as decrease in TGFbeta-induced alpha-SMA expression at 10 uM measured after 48 hrs incubation by Western blotting analysis; assay type: cell-based
Sequence of Transient receptor potential cation channel subfamily V member 1 (Homo sapiens) (Q8NER1 whole entry): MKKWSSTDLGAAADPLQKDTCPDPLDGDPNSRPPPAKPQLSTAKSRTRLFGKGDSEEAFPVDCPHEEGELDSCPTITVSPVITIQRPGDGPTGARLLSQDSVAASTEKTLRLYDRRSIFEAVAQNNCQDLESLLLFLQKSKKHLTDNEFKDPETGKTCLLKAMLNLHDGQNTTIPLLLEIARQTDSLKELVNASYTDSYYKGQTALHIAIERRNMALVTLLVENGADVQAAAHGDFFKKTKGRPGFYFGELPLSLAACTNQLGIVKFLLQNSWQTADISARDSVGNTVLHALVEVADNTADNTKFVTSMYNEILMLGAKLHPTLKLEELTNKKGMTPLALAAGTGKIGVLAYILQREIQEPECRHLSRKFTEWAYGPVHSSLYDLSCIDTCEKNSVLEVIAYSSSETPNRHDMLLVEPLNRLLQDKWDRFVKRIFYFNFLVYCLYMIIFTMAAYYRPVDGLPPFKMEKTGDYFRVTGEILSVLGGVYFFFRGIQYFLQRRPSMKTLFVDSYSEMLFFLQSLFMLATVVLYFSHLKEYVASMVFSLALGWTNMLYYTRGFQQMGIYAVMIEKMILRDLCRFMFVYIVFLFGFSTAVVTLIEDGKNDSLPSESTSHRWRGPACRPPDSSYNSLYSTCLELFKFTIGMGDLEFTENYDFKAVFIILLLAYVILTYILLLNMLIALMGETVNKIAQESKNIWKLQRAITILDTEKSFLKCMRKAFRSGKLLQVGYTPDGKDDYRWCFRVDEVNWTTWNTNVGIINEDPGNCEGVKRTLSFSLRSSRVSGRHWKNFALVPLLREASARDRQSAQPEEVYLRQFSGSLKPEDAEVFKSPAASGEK

[28] = Acute toxicity in Kunming male mouse assessed as Aspartate aminotransferase (AST) level at 180 mg/kg, ip measured after 14 days (reference value: 116.7 U/L); assay type: organism-based; settings: in vivo, 336 h, time 14 day
[29] = Acute toxicity in Kunming female mouse assessed as Aspartate aminotransferase (AST) level at 180 mg/kg, ip measured after 14 days (reference value: 116.2 U/L); assay type: organism-based; settings: in vivo, 336 h, time 14 day
Mus musculus [30] = assay: Anti-fibrotic activity against bleomycin-induced pulmonary fibrosis mouse model assessed as increase in survival of mouse at 10 to 20 mg/kg, ip administered every alternative day for 8 to 21 days after modeling; assay type: functional, organism-based; settings: dose 10-20 mg/kg, time 8-21 day
[31] = AUC(0 to t) in Sprague-Dawley rat at 50 mg/kg, ip measured upto 4 hrs by UPLC-MS/MS analysis; assay type: ADME, organism-based; settings: in vivo
[32] = VRT(0 to infinity) in Sprague-Dawley rat at 50 mg/kg, ip measured upto 4 hrs by UPLC-MS/MS analysis; assay type: ADME, organism-based; settings: in vivo
[33] = Cmax in Sprague-Dawley rat at 50 mg/kg, po measured upto 4 hrs by UPLC-MS/MS analysis; assay type: ADME, organism-based; settings: in vivo
[34] = Bioavailability in Sprague-Dawley rat at 50 mg/kg, ip measured upto 4 hrs by UPLC-MS/MS analysis; assay type: ADME, organism-based; settings: in vivo
[35] = Apparent volume of distribution in Sprague-Dawley rat at 50 mg/kg, ip measured upto 4 hrs by UPLC-MS/MS analysis; assay type: ADME, organism-based; settings: in vivo
Rattus norvegicus = assay: Zeta in Sprague-Dawley rat at 50 mg/kg, ip measured upto 4 hrs by UPLC-MS/MS analysis; assay type: ADME, organism-based; settings: in vivo
[36] = target: Transient receptor potential cation channel subfamily V member 1 (Homo sapiens) (UniProt Q8NER1); assay: Inhibition of TRPV1 (unknown origin) overexpressed in HEK-293T cells assessed as reduction in calcium level measured after 24 hrs by Fluo-4 calcium ion detection kit; assay type: cell-based

O=C(/C=C/c1ccc(O)c(O)c1)CCCCc1ccccc1
Activity (Mus musculus [1]): Active | inhibition at 10 µM (NIH3T3 [2]): 80.7% | Activity (Mus musculus [3]): Active | inhibition (NIH3T3 [4]): Active | AUC(0-t) at 4 h [5]: 99 ng·h/mL | Activity [6]: Non-toxic | Activity [7]: Non-toxic | AUC(0-t) at 4 h [8]: 2640 ng·h/mL | Activity [9]: 345.6 µmol/L | Activity (Mus musculus [10]): Active | MRT inf [11]: 47.6 min | Activity [12]: 1115.7 U/L | inhibition (NIH3T3 [13]): Dose-dependent-effect; Compound Showed Superior Inhibition Effect Than Nintedanib | Activity [14]: Non-toxic | Activity (Mus musculus [15]): Active | Activity [16]: 33.2 g/L | Activity [17]: 1.02 µmol/L | AUC [18]: 2670.601 ng·h/mL | Tmax [19]: 10.2 min | Activity [20]: Dose-dependent-effect | CL [21]: 305.45 mL/min/kg | inhibition (NIH3T3 [22]): Active | VRT(t) [23]: 0.53 hr2 | AUMCt [24]: 121.11 ug/L.hr | MRT inf [25]: 34.2 min | half-life [26]: 39.4 min | inhibition [27]: inactive | Activity [28]: 125.2 U/L | Activity [29]: 160.5 U/L | Activity (Mus musculus [30]): Active; Comparable To Nintedanib | AUC(0-t) at 4 h [31]: 1100 ng·h/mL | VRT [32]: 0.72 hr2 | Cmax [33]: 48.9 ng/mL | bioavailability [34]: 29.6% | Vz [35]: 9.28 L/kg | Activity (Rattus norvegicus): 1.98 | inhibition [36]: Active
